Experimental data reported in patent US20240002326A1, “COMPOUNDS AND USE THEREOF IN METHODS OF TREATMENT” (The University of Queensland, priority 2016, published 2024).
Blank lines part the entries; values can stand above or below the compound they belong to.

Tests used:
SOX18-MEF2C interaction = SOX18-MEF2C interaction (Homo sapiens (Human), UniProt P35713); assay: ALPHAScreen SOX18-MEF2C protein-protein interaction; assay type: binding; details: read-out: SOX18-MEF2C interaction disruption IC50
Chain of SOX18-MEF2C interaction (P35713 whole entry): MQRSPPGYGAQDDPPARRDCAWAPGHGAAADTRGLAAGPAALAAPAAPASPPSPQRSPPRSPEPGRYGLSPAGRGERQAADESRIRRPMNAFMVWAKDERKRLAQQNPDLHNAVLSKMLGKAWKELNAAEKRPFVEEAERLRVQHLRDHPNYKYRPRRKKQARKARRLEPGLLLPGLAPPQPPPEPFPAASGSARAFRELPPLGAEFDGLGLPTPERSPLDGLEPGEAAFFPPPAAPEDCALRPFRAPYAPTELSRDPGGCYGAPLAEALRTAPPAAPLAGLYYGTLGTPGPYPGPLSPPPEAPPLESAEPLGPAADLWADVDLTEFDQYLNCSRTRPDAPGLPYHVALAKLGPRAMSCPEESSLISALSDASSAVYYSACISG
From the text: Proteins were genetically encoded with enhanced GFP (GFP), mCherry and cMyc (myc) tags, and cloned into cell free expression Gateway destination vectors: N-terminal GFP tagged (pCellFree_G03), N-terminal Cherry-cMyc (pCellFree_G07) and C-terminal Cherry-cMyc tagged (pCellFree_G08) (Gagoski et al., 2015). Human RBPJ (BC020780) and MEF2C (BC026341) Open Reading Frames (ORFs) were sourced from the Human ORFeome collection, version 1.1 and 5.1, and the Human Orfeome collaboration OCAA collection (Open Biosystems), as previously described (Sierecki et al., 2013) and cloned at the ARVEC facility, UQ Diamantina Institute. […]
ALPHAScreen was performed as previously described (Sierecki et al., 2014, Sierecki et al., 2013). […] Percentage of interaction was calculated as: (I_cpd/I_DMSO)×100 from 3 independent experiments.
ALPHAScreen was performed as previously described (Sierecki et al., 2014, Sierecki et al., 2013), using the cMyc detection kit and Proxiplate-384 Plus plates (PerkinElmer). […] The ALPHAScreen signal was measured on an Envision Plate Reader (PerkinElmer), using manufacturer's recommended settings (λexc=680/30 nm for 0.18 s, λem=570/100 nm after 37 ms). […]
I is the highest signal level (top of the hook effect curve) and Ineg is the lowest (background) signal level. […] Percentage of interaction was calculated as: […]

HEK293 = assay: Cytotoxicity assay (Alamar blue), HEK293; assay type: cell-based; details: HEK293, 24 h
Method in brief: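 COS-7 cells in DMEM with 10% FBS; HepG2 and HEK293 in DMEM with 1% FBS. After 24 h plating, serial compound dilutions (0.5% DMSO final) added for 24 h at 37° C. Viability from Alamar blue 5 μM, fluorescence 560/590 nm read after 2 h.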

COS-7 cells = assay: Cytotoxicity assay (Alamar blue), COS-7; assay type: cell-based, Monkey; details: COS7, 24 h; read-out: In vitro cytotoxicity CC50 ± SD COS7
Protocol: Cell toxicity was determined using Alamar blue, as previously described (McMillian et al., 2002). COS-7 cells were seeded as 7000 cells per well in black wall clear bottom 96-well plates in DMEM medium (Life Technologies Australia) with 10% FBS. HepG2 and HEK293 cell lines, from ATCC, were seeded as 5000 cells per well in black wall clear bottom 384-well cell culture plates in DMEM with 1% FBS. Cells were cultured for 24 h at 37° C., 5% CO2. A serial dilution of compounds was added, with a final DMSO concentration adjusted to 0.5% v/v. Cells were incubated for another 24 h. 1 Triton X-100 was used as negative control, and 0.5% DMSO as positive control. 5 μM Alamar blue was added to each well and fluorescence was measured (λexc=560 nm, λem=590 nm) after 2 h incubation at 37° C. Data were analysed using Prism software.

scrambled DNA = assay: Direct DNA-binding assay (SPR), scrambled DNA; details: biotinylated double-strand DNA on streptavidin chip
Protocol: Compounds were tested at a 1% v/v DMSO in HBS-EP buffer (10 mM HEPES, 150 mM NaCl, 3 mM EDTA, 0.005% v/v polysorbate 20, pH 7.4). The same buffer supplemented with 1% v/v DMSO was used as a mobile phase. DNA minor groove binder DAPI (4′,6-diamidino-2-phenylindole), DNA intercalator and minor groove binder actinomycin D, and DNA intercalator ethidium bromide were used as positive controls. Biotinylated (one tag per probe) double strand DNA probes were prepared using a standard annealing routine (5 min at 100° C., room temperature overnight and stored at −20° C.) of single strand anti-parallel DNA Probes purchased from Geneworks and were immobilized on CM5-SA streptavidin chips as per manufacturer's recommendations. […] All sample and control cycles were performed in triplicate. DMSO calibration was performed as per manufacturer's recommendations. After each injection, an extra flow system wash was performed with 50% v/v DMSO to avoid carryover. Experiments were run on a Biacore T200 (GE Healthcare, USA), with one flow cell kept as a reference.
From a molecular viewpoint, an inhibitor of SOX18-DNA binding could act either by interacting directly with the DNA, or the protein, or at the interface between protein and DNA. Binding of small molecules directly to the DNA, even though reported for other TFs (Leung et al., 2013), has the potential for unspecific DNA binding, leading to possible genotoxicity, mutagenicity, or carcinogenicity. For this reason, we developed a direct binding assays to determine whether the active compounds interact directly with DNA or protein. A surface plasmon resonance-based method was developed to analyse the binding of small molecules to biotinylated double stranded DNA immobilized on the surface of a streptavidin chip. The method measures the rate of binding (kon), dissociation (koff) and binding constant (KD), and was used to measure the binding to two different DNA sequences: SOX binding site consensus DNA, and scrambled DNA. Intercalating agents ethidium bromide and Actinomycin D, and the minor groove-binding agent 4′,6-diamino-2-phenylindole (DAPI) were used as positive controls for unselective DNA binding.

SMILES: O=C(O)c1ccccc1Nc1cccc(C(F)(F)F)c1 [Flufenamic acid, reference compound]
- IC50 (SOX18-MEF2C interaction): 29.1 µM

SMILES: CCN(CC)C(=O)c1c(O)cc(O)cc1CCc1ccc2ccccc2c1 [Sm26, N,N,diethyl-2,4-hydroxy-6-(2-(naphthalen-2-yl)ethyl)benzamide]
- CC50 (HEK293): 23.5 µM

- binding to scrambled DNA (SPR) (scrambled DNA): do not bind
SMILES: O=C(O)c1c(O)cccc1COCCc1ccccc1 [Sm5]
- CC50 (COS-7 cells): > 200 µM
